# Measured values as given in patent US20250009901A1, “COMPOSITION COMPRISING A COMBINATION OF IMMUNE CHECKPOINT INHIBITOR AND ANTIBODY-AMATOXIN CONJUGATE FOR USE IN CANCER THERAPY” (Heidelberg Pharma Research GmbH, priority 2020, published 2025).
# Columns and labels:
# [1] = system: CD19-positive Raji cells (human Burkitt lymphoma); test: Raji xenograft mouse model with human PBMCs, ATAC and Avelumab (first Example 4, FIG. 5); format: in vivo, mice
# Description: FIG. 5. Synergistic action of Avelumab and Anti-CD19-Amatoxin conjugate in the presence of peripheral blood mononuclear cells (PBMCs). Results of anti-tumoral studies using anti-PD-L1 antibody Avelumab (20 mg/kg, i.v., days 0, 3, 6, 8, 10, 13), or anti-CD19-amatoxin conjugate (ATAC, 0.1 and 0.3 mg/kg, respectively; single dose i.v. day 0), or a combination of Avelumab (20 mg/kg) and ATAC (0.1 and 0.3 mg/kg, respectively), in vivo in a Raji xenograft mice model system. Tumor volume was assessed at various time points after tumor cell inoculation.
# The cytotoxic activity of the combination comprising an ICI and an ATAC has been assessed by use of a tumor mouse model in vivo. The study consisted of 6 experimental groups with 12 animals each. CD19-positive Raji cells (human Burkitt lymphoma, DSMZ) were premixed with human peripheral blood mononuclear cells (PBMCs, German Red Cross) and inoculated subcutaneously on study day 0. […] Tumor volumes were measured twice per week by calliper measurements and body weights were determined in parallel. […]
# RNA-polymerase II = RNA-polymerase II (Homo sapiens, UniProt P24928); details: read-out: KD of the complex between amanitin and RNA-polymerase II; cited from earlier work
# [2] = system: CD79b-positive cell line BJAB; test: Extracellular ATP measurement (ICD marker); format: cell-based, human; details: Amanitin 100 nM, conjugates 50 nM antibody, 16, 40, 64 h post-treatment, vs media only
# Description: (§1) The Her2-positive cell line BT474 is a human breast cancer cell line. The CD79b-positive cell line BJAB is a human Burkitt lymphoma-derived B cell line.
# (§2) Cells of the Her2-positive cell line BT474 and of the CD79b-positive cell line BJAB, respectively, were plated at 8×10^4 cells per well in 100 μL of media. Flat bottom or U-bottom plates were used for BT474 or BJAB cells, respectively. The following day, media was changed. […] Then, cells were treated with media alone, Maytansine (100 nM), Amanitin (100 nM), Anti-HER2-Amanitin conjugate (50 nM antibody), or Anti-CD79b-Amanitin conjugate (50 nM antibody) for 16-72 h.
# (§3) At 16, 40, and 64 h post-treatment, culture media was transferred to reaction tubes (Eppendorf) and centrifuged gently. Extracellular ATP concentrations were determined by use of the ENLITEN ATP Assay (Promega). Chemiluminescence was measured on a SpectraMax ME chemiluminescence reader (Molecular Devices).
# [3] = system: Her2-positive cell line BT474; test: Extracellular ATP measurement (ICD marker); format: cell-based, human; details: Amanitin 100 nM, conjugates 50 nM antibody, 16, 40, 64 h post-treatment, vs media only
# Description: as §1, §2, §3
# [4] = system: CD79b-positive cell line BJAB; test: Calreticulin measurement (ICD marker), flow cytometry; format: cell-based, human; details: Amanitin 100 nM, conjugates 50 nM antibody, 24, 48, 72 h post-treatment, vs media only
# Description: as §1, §2
# (§4) Cells were assayed at 24, 48, and 72 h post-treatment. The adherent BT474 cells were lifted with a solution of highly purified, recombinant cell-dissociation enzymes (TrypLE, Thermo-Fisher) for 2 min. at 37° C. Both BT474 and BJAB cells were washed with PBS/2% FBS and then fixed in 0.5% paraformaldehyde for 5 min. After washing twice with cold PBS/2% FBS, cells were incubated for 5 min. with an Fc receptor binding inhibitor (FC block, eBioscience), blocking Fc receptor-mediated non-specific binding, followed by 30-min. incubation with Anti-Calreticulin-FITC (Abcam) or isotype control-FITC (Abcam). […] Propidium iodide (PI) was added, and samples were analyzed by flow cytometry on a FACSCanto instrument (Becton-Dickinson) using FACS Diva software.
# [5] = system: Her2-positive cell line BT474; test: as above; format: cell-based, human; details: Amanitin 100 nM, conjugates 50 nM antibody, 24, 48, 72 h post-treatment, vs media only
# Description: as §1, §2, §4
# [6] = system: CD79b-positive cell line BJAB; test: Extracellular HMGB1 measurement (ICD marker), ELISA; format: cell-based, human; details: Amanitin 100 nM, conjugates 50 nM antibody, 24, 48, 72 h post-treatment, vs media only
# Description: as §1, §2
# (§5) Culture media was collected at 24, 48, and 72 h post-treatment. Analytes were captured on a Nunc Maxisorp 96-well plate coated at pH 9 with 1 μg/mL Anti-HMGB1 antibody (clone 1D5, Sigma), and plates were blocked with casein buffer (ThermoFisher). A standard curve was generated using recombinant human HMGB1 protein (R&D Systems) added to culture media that had been incubated at 37° C./5% CO2 for the same number of days as the experimental samples. This step had the effect of normalizing background signals observed in fresh culture media. […] After 30 min, the plate was washed with PBS/0.1% Tween-20, and bound secondary antibody was detected using Ultra TMB (Thermo Fisher); signals were read on a Molecular Devices Spectra Max M5 plate reader. […]
# [7] = system: Her2-positive cell line BT474; test: as above; format: cell-based, human; details: Amanitin 100 nM, conjugates 50 nM antibody, 24, 48, 72 h post-treatment, vs media only
# Description: as §1, §2, §5
Substance,"Reduction of the tumor volumes as compared to the control group (PBS), single agents compared with each other ([1]; Avelumab 20 mg/kg alone, ATAC 0.1 mg/kg alone)","Mean TV (tumor volume) ([1]; day 31 post tumor cell inoculation, Avelumab 20 mg/kg i.v. days 0, 3, 6, 8, 10, 13)",Kd (RNA-polymerase II),ATP secretion [2],ATP secretion [3],cell surface exposure of calreticulin (CRT) [4],cell surface exposure of calreticulin (CRT) [5],HMGB1 release [6],HMGB1 release [7]
Avelumab: PD-L1-specific antibody,comparable,353.1 mm^3,–,–,–,–,–,–,–
Amanitin,–,–,3 nM,did not induce,did not induce,did not induce,did not induce,did not induce,did not induce
